According to publication PMC9865752, “Design and Synthesis of (Z)-2-(Benzylamino)-5-benzylidenethiazol-4(5H)-one Derivatives as Tyrosinase Inhibitors and Their Anti-Melanogenic and Antioxidant Effects” (Molecules, 2023):
Read-outs that look alike come from different tables or passages of the source.

How the values were obtained:
B16F10 cells = assay: Cell viability (EZ-Cytox assay); type: cell-based, murine; settings: 0, 1, 2, 5, 10, 20 µM, 72 h
Procedure: Before these experiments were performed, the influence of these derivatives on cytotoxicity in B16F10 cells was examined to determine their optimal concentration range for B16F10 cell experiments. The cytotoxicity of derivatives 7 and 8 at six concentrations (0, 1, 2, 5, 10, and 20 µM) was assessed using the EZ-Cytox assay.
Cytotoxicity assays in B16F10 cells were performed using the EZ-Cytox solution (EZ-3000, DoGenBio, Seoul, Republic of Korea). Briefly, B16F10 cells were seeded at a density of 1 × 10^4 cells per well and cultured at 37 °C in a 5% CO2 atmosphere for 24 h. […] Then, the EZ-Cytox solution (10 μL aliquot) was added to each well. After 2 h of incubation at 37 °C, the optical density of each well was measured at 450 nm using a microplate reader (VersaMax; Molecular Devices).

[1] = SIN-1-induced ROS scavenging assay; settings: 20 µM; SIN-1 as ROS generator; DCFH-DA probe
Description: The scavenging activities of the BABT derivatives 1–14 against ROS and peroxynitrite (ONOO^−) were investigated because the antioxidant activities of the compounds may modulate melanogenesis. To measure the ROS scavenging activities of BABT derivatives, 2′,7′-dichlorodihydrofluorescein diacetate (DCFH-DA) and 3-morpholinosydnonimine (SIN-1) were used as a fluorogenic probe and ROS generator, respectively. The reaction of DCFH-DA with esterase produces 2′,7′-dichlorodihydrofluorescein (DCFH), which generates the fluorescent compound 2′,7′-dichlorofluorescein (DCF) by reacting with ROS produced by SIN-1. Therefore, ROS scavenging activities were determined by measuring the DCF fluorescence remaining after the BABT derivatives scavenged the ROS generated by SIN-1. […] BABT derivatives and Trolox, the positive control, were used at a concentration of 20 µM.
The ROS scavenging activities of the BABT derivatives were measured using an oxidant-sensitive fluorescent probe. Derivatives or Trolox (10 µL; final concentration: 20 µM) were seeded in a black 96-well plate. Then, 10 µL of SIN-1 (10 µM) was added to induce radical species generation and mixed with 180 µL of sodium phosphate buffer (pH 7.4) containing 12.5 µM DCF-DA and 600 units of esterase. Fluorescence intensity was measured at emission and excitation wavelengths of 535 and 485 nm, respectively, using a fluorescence microplate reader (Berthold Technologies GmbH & Co., Wien, Austria). Trolox was used as the positive control.

[2] = Peroxynitrite scavenging assay; settings: 20 µM; SIN-1 as generator; DHR123 probe
Procedure: The effects of the BABT derivatives on peroxynitrite scavenging activities were also examined using SIN-1 as an RNS generator and dihydrorhodamine (DHR123) as an ROS indicator. DHR123 was converted to fluorescent rhodamine 123 by peroxynitrite generated by SIN-1. Therefore, the peroxynitrite scavenging activities of 1–14 were assessed by measuring the fluorescence of rhodamine 123. BABT derivatives and penicillamine, the positive control, were used at a concentration of 20 µM.
The peroxynitrite scavenging activities of the BABT derivatives were assessed using the method developed by Kooy, involving the monitoring of highly fluorescent rhodamine 123, which was rapidly produced from non-fluorescent DHR123 in the presence of peroxynitrite. Rhodamine buffer (pH 7.4) was composed of 50 mM sodium phosphate dibasic, 50 mM sodium phosphate monobasic, 90 mM sodium chloride, 5 mM potassium chloride, and 100 µM DTPA. A 10 µL aliquot of BABT derivatives or PCA (final concentration: 20 µM) was seeded in a black 96-well plate. Then, 10 µL of SIN-1 (10 µM) was added to induce radical species generation and mixed with 180 µL of rhodamine buffer. Fluorescence intensity was measured at emission and excitation wavelengths of 535 and 485 nm, respectively, using a fluorescence microplate reader (Berthold Technologies GmbH & Co.). PCA was used as the positive control.

mushroom tyrosinase = assay: Mushroom tyrosinase inhibition assay; type: biochemical; settings: for IC50: mean ± SEM of three experiments
Procedure: As mushroom tyrosinase is commercially available and relatively cheap, it is used as a tool for the identification of novel tyrosinase inhibitors. Here, we examined the tyrosinase inhibitory activities of the 14 BABT derivatives against mushroom tyrosinase in the presence of L-tyrosine or L-dopa as substrates.
Mushroom tyrosinase inhibitory activities of BABT derivatives were determined as described previously, with minor modifications. L-Tyrosine and L-dopa were used as substrates to evaluate the enzyme activity. […] Assay mixtures were incubated at 37 °C for 30 min, and dopachrome amounts synthesized were determined by measuring the optical density of each well at 475 nm using a microplate reader (VersaMax; Molecular Devices, Sunnyvale, CA, USA).

tyrosinase = assay: Western blotting of tyrosinase protein expression; type: cell-based, murine
Procedure: We investigated whether, in addition to the direct inhibition of tyrosinase, another inhibitory mechanism of melanogenesis by derivative 8 may be related to the expression of proteins involved in melanogenesis. For the Western blotting experiment, B16F10 cells were treated with α-MSH (1 µM) plus IBMX (200 µM), leading to a 1.7- and 4.9-fold increase in expression levels of melanogenesis-associated proteins tyrosinase and MITF, compared to those in the untreated control (100%) (Figure 13).
B16F10 cells were seeded in a 60 mm dish at a density of 5 × 10^5 cells/mL for 24 h, washed with cold PBS, and harvested. Cytosolic and nuclear fractions of cell lysates were extracted using lysis buffer, as described previously. Protein concentrations in the cell lysates were estimated using the BCA protein assay (Pierce, Rockford, IL, USA). […] The membranes were washed and protein bands detected using the SuperSignal West Pico Chemiluminescence assay kit (Advansta, San Jose, CA, USA) and the Davinch–Chem program (Davinch-K, Seoul, Republic of Korea). Immunoblotting data were quantified using CS Analyzer 3.2 (Densitograph) image analysis software (http://www.attokorea.co.kr, accessed on 21 November 2022).

## O=C1N=C(NCc2ccccc2)S/C1=C\c1ccc(O)cc1O [Compound 8, (Z)-2-(benzylamino)-5-(2,4-dihydroxybenzylidene)thiazol-4(5H)-one]
B16F10 cells
  cytotoxicity: no cytotoxicity until 72 h at all tested concentrations
[1]
  ROS scavenging activity (in words): did not show significant ROS scavenging effect
[2]
  peroxynitrite scavenging activity (in words): scavenged peroxynitrite more potently than did penicillamine
Mushroom tyrosinase; L-dopa versus L-tyrosine as substrate
  fold higher IC50 value with L-dopa than with L-tyrosine: 4 fold
Mushroom tyrosinase; substrate L-dopa, read-out: IC50 (µM) L-Dopa
  IC50: 1.04 ± 0.05 µM
Mushroom tyrosinase; substrate L-tyrosine
  fold more potent than kojic acid: 106 fold
Mushroom tyrosinase; substrate L-tyrosine, read-out: IC50 (µM) L-Tyrosine
  IC50: 0.27 ± 0.03 µM
tyrosinase; 10 µM, α-MSH plus IBMX treated B16F10 cells
  relative expression level of tyrosinase protein: lowered the protein expression to the same or lower control levels
tyrosinase; 5, 10 and 20 µM, α-MSH (1 µM) plus IBMX (200 µM) treated B16F10 cells
  relative expression level of tyrosinase protein: significantly reduced the relative expression levels of tyrosinase and MITF in a dose-dependent manner
